Assay results published in US4620014A, “2-furylbutyrolactones and methods for using same” (priority 1983, dated 1986).
Like-named read-outs stand apart in the source and are kept apart here.

What was measured:
[1] = tested on: antibody response to keyhole limpet hemocyanin (KLH)
Text: The effect of the compounds of this invention on the immune response to specific antigens involves immunization of mice with specific anitgens such as bovine serum albumin (BSA) or keyhole limpet hemocyanin (KLH). Following immunization, it is possible to assess the cell-mediated or humoral (antibody) immune response to these antigens by various methods:
(2) Antibody response to soluble antigens such as BSA or KLH can be quantitated using a micro-ELISA solid phase heterogeneous immunoassay. The assay can be designed to quantitate class specific immunoglobulins (i.e., IgG or IgM).
The cut-off for the titer was the highest dilution of mouse serum yielding an O.D.≤0.1 when read on the MR-600 Dynatech micro-ELISA reader.
Mice of the C57BL/6 strain are given i.p. injections of either 50, 100, 200 or 400 mg/kg of Cpd. 1 or buffer for ten days (days 1-10). An antigen, keyhole limpet hemocyanin (KLH), is administered intraperitoneally with Freund's Complete Adjuvant (FCA) on days 1, 7, and 13. Blood samples are taken for assay of the antibody response on days 0, 5, 12, and 17. Spleens are removed, lymphocytes isolated and a lymphocyte stimulation assay with PHA, Con-A or KLH antigen as the mitogens is performed on day 17 of the experiment.

[2] = tested on: L5178Y target cells; test: MLTC assay of CTL activity, L5178Y target cells; type: cell-based, mouse
Text: A mixed lymphocyte tumor culture (MLTC) immunoassay, used to determine the cytotoxic lymphocyte (CTL) activity employs lymphocytes from either immunized (sensitized) mice or DBA/2 tumor dormant state animals in various stages of the tumor dormant state (TDS). The assay employs L5178Y target cells labeled with ^51 Chromium and effector cells (sensitized lymphocytes) from the above-mentioned sources. Effector-target cell ratios will vary with different experimental conditions and may or may not include irradiated stimulator L5178Y cells. Results are expressed as % lysis of target cells based on ratio of cpm of test group over cpm of total release (maximum) both of which are corrected for spontaneous release of ^51 Cr. The assay can be performed as an 8 or 18 hour release assay.
Ten days later the resultant tumor nodule, about 1 cm in size, is surgically excised. If the excision was successful, no subcutaneous tumors develop at the site of implantation. […] These mice are considered to be in the tumor dormant state.
The effect of Cpd. 1 on cytotoxic lymphocyte (CTL) activity is measured using five DBA/2 mice in the early stage of the TDS, 10 days after challenge with viable L5178Y tumor cells. Six doses of Cpd. 1, 0.001, 0.01, 0.1, 1.0, 10, or 100 μg/ml or just buffer are added in 100 μl volumes to MLTC microculture wells containing washed spleen lymphocytes from the DBA/2 mice, effector, and L5178Y target cells at varying E/T ratios. The MLTC reaction is performed in the presence or absence of irradiated L5178Y stimulator cells.
Five DBA/2 mice in the early stage of the TDS, 10 days after challenge with viable L5178Y tumor cells were used to measure the effect of Cpd. 1 on CTL activity. Two doses of Cpd. 1, 10, or 100 μg/ml, or just buffer were added in 100 μl volumes to the MLTC microculture wells containing washed spleen lymphocytes from the DBA/2 mice, effector and L5178Y target cells at varying E/T ratios. The MLTC reaction was performed in the presence or absence of irradiated L5178Y stimulator cells.
DBA/2 mice in the early stage of TDS, […] with viable L5178Y tumor cells, were used to measure the effect of Cpd. 2 on CTL activity. Cpd. 2, 0.1, 1.0, 10 or 100 μg/ml, or just buffer was added in 100 μl volumes to MLTC microculture wells containing washed spleen lymphocytes from DBA/2 mice, effector, and L5178Y target cells at varying E/T ratios. The MLTC reaction was performed in the presence or absence of irradiated L5178Y stimulator cells.
An MLTC assay is performed to assess the CTL activity and tumor target cell specificity of Cpd. 1. Tumor dormant spleen cells and normal spleen cells of DBA/2 mice are used as effector cells. Irradiated L5178Y cells are used as stimulator cells. ^51 Cr-labeled L5178Y cells and FLC-745 cells are used as target cells. The effector/target ratios studied are 100:1, 30:1 and 10:1.

`Cc1ccc(C2(O)C(=O)OC3C(O)COC32O)o1.Cc1ccc(C2(O)C(=O)OC3C(O)COC32O)o1.O=C1CCC(=O)O1` (stereo not shown) [Cpd. 1] was tested, and the “Micro-ELISA Titer” value ([1]; 50 mg/kg i.p., day 5) was “N/R”, the “Micro-ELISA Titer” value ([1]; 50 mg/kg i.p., prebleed) was “N/R” and the “Micro-ELISA Titer” value ([1]; 100 mg/kg i.p., day 5) was “N/R”. For the same compound, the “Micro-ELISA Titer” value ([1]; 100 mg/kg i.p., prebleed) was “N/R”, the “Micro-ELISA Titer” value ([1]; 200 mg/kg i.p., day 5) was “N/R” and the “Micro-ELISA Titer” value ([1]; 200 mg/kg i.p., prebleed) was “N/R”. The “Micro-ELISA Titer” value ([1]; 400 mg/kg i.p., day 5) was “N/R”, the “Micro-ELISA Titer” value ([1]; 400 mg/kg i.p., prebleed) was “N/R” and the “stimulation of antibody response to KLH over control” value ([1]; 200 and 400 mg/kg, day 12) was “significant stimulation (four-fold increases)”. The “increase of antibody response to KLH over untreated antigen-sensitized controls” value ([1]; 200 and 400 mg/kg, day 17) was “eight-fold increase”, the “% Lysis” value ([2]; 0.001 μg/ml, E/T 10:1, TDS DBA/2, with stimulator cells) was 16.7% and the “% Lysis” value ([2]; 0.001 μg/ml, E/T 10:1, TDS DBA/2, without stimulator cells) was 3.9%. For the same compound, the “% Lysis” value ([2]; 0.001 μg/ml, E/T 30:1, TDS DBA/2, with stimulator cells) was 40.2%, the “% Lysis” value ([2]; 0.001 μg/ml, E/T 30:1, TDS DBA/2, without stimulator cells) was 12.2% and the “% Lysis” value ([2]; 0.001 μg/ml, E/T 100:1, TDS DBA/2, with stimulator cells) was 71.1%. For the same compound, the “% Lysis” value ([2]; 0.001 μg/ml, E/T 100:1, TDS DBA/2, without stimulator cells) was 23.4%, the “% Lysis” value ([2]; 0.01 μg/ml, E/T 10:1, TDS DBA/2, with stimulator cells) was 20.6% and the “% Lysis” value ([2]; 0.01 μg/ml, E/T 10:1, TDS DBA/2, without stimulator cells) was 3.5%. For the same compound, the “% Lysis” value ([2]; 0.01 μg/ml, E/T 30:1, TDS DBA/2, with stimulator cells) was 55.8%, the “% Lysis” value ([2]; 0.01 μg/ml, E/T 30:1, TDS DBA/2, without stimulator cells) was 15.7% and the “% Lysis” value ([2]; 0.01 μg/ml, E/T 100:1, TDS DBA/2, with stimulator cells) was 77.1%. For the same compound, the “% Lysis” value ([2]; 0.01 μg/ml, E/T 100:1, TDS DBA/2, without stimulator cells) was 26.0%, the “% Lysis” value ([2]; 0.1 μg/ml, E/T 10:1, TDS DBA/2, with stimulator cells) was 20.2% and the “% Lysis” value ([2]; 0.1 μg/ml, E/T 10:1, TDS DBA/2, without stimulator cells) was 3.5%. The “% Lysis” value ([2]; 0.1 μg/ml, E/T 30:1, TDS DBA/2, with stimulator cells) was 51.0%, the “% Lysis” value ([2]; 0.1 μg/ml, E/T 30:1, TDS DBA/2, without stimulator cells) was 14.8% and the “% Lysis” value ([2]; 0.1 μg/ml, E/T 100:1, TDS DBA/2, with stimulator cells) was 79.0%. The “% Lysis” value ([2]; 0.1 μg/ml, E/T 100:1, TDS DBA/2, without stimulator cells) was 31.6%, the “% Lysis” value ([2]; 1.0 μg/ml, E/T 10:1, TDS DBA/2, with stimulator cells) was 15.6% and the “% Lysis” value ([2]; 1.0 μg/ml, E/T 10:1, TDS DBA/2, without stimulator cells) was 4.6%. For the same compound, the “% Lysis” value ([2]; 1.0 μg/ml, E/T 30:1, TDS DBA/2, with stimulator cells) was 46.0%, the “% Lysis” value ([2]; 1.0 μg/ml, E/T 30:1, TDS DBA/2, without stimulator cells) was 20.0% and the “% Lysis” value ([2]; 1.0 μg/ml, E/T 100:1, TDS DBA/2, with stimulator cells) was 71.5%. For the same compound, the “% Lysis” value ([2]; 1.0 μg/ml, E/T 100:1, TDS DBA/2, without stimulator cells) was 40.1%, the “% Lysis” value ([2]; 10 μg/ml, E/T 6.25:1, TDS DBA/2, with stimulator cells) was 60.5% and the “% Lysis” value ([2]; 10 μg/ml, E/T 6.25:1, TDS DBA/2, without stimulator cells) was “.7%”. The “% Lysis” value ([2]; 10 μg/ml, E/T 10:1, TDS DBA/2, with stimulator cells) was 15.9%, the “% Lysis” value ([2]; 10 μg/ml, E/T 10:1, TDS DBA/2, without stimulator cells) was 4.6% and the “% Lysis” value ([2]; 10 μg/ml, E/T 12.5:1, TDS DBA/2, with stimulator cells) was 67.1%. For the same compound, the “% Lysis” value ([2]; 10 μg/ml, E/T 12.5:1, TDS DBA/2, without stimulator cells) was 6.9%, the “% Lysis” value ([2]; 10 μg/ml, E/T 25:1, TDS DBA/2, with stimulator cells) was 72.0% and the “% Lysis” value ([2]; 10 μg/ml, E/T 25:1, TDS DBA/2, without stimulator cells) was 8.1%. The “% Lysis” value ([2]; 10 μg/ml, E/T 30:1, TDS DBA/2, with stimulator cells) was 42.0%, the “% Lysis” value ([2]; 10 μg/ml, E/T 30:1, TDS DBA/2, without stimulator cells) was 16.8% and the “% Lysis” value ([2]; 10 μg/ml, E/T 50:1, TDS DBA/2, with stimulator cells) was 75.7%. For the same compound, the “% Lysis” value ([2]; 10 μg/ml, E/T 50:1, TDS DBA/2, without stimulator cells) was 12.8%, the “% Lysis” value ([2]; 10 μg/ml, E/T 100:1, TDS DBA/2, with stimulator cells) was 74.3% and the “% Lysis” value ([2]; 10 μg/ml, E/T 100:1, TDS DBA/2, without stimulator cells) was 36.3%. For the same compound, the “% Lysis” value ([2]; 100 μg/ml, E/T 6.25:1, TDS DBA/2, with stimulator cells) was 56.3%, the “% Lysis” value ([2]; 100 μg/ml, E/T 6.25:1, TDS DBA/2, without stimulator cells) was 6.1% and the “% Lysis” value ([2]; 100 μg/ml, E/T 10:1, TDS DBA/2, with stimulator cells) was 21.2%. The “% Lysis” value ([2]; 100 μg/ml, E/T 10:1, TDS DBA/2, without stimulator cells) was 8.6%, the “% Lysis” value ([2]; 100 μg/ml, E/T 12.5:1, TDS DBA/2, with stimulator cells) was 75.7% and the “% Lysis” value ([2]; 100 μg/ml, E/T 12.5:1, TDS DBA/2, without stimulator cells) was 11.1%. The “% Lysis” value ([2]; 100 μg/ml, E/T 25:1, TDS DBA/2, with stimulator cells) was 79.8%, the “% Lysis” value ([2]; 100 μg/ml, E/T 25:1, TDS DBA/2, without stimulator cells) was 16.6% and the “% Lysis” value ([2]; 100 μg/ml, E/T 30:1, TDS DBA/2, with stimulator cells) was 54.2%. For the same compound, the “% Lysis” value ([2]; 100 μg/ml, E/T 30:1, TDS DBA/2, without stimulator cells) was 18.7%, the “% Lysis” value ([2]; 100 μg/ml, E/T 50:1, TDS DBA/2, with stimulator cells) was 71.6% and the “% Lysis” value ([2]; 100 μg/ml, E/T 50:1, TDS DBA/2, without stimulator cells) was 21.8%. The “% Lysis” value ([2]; 100 μg/ml, E/T 100:1, TDS DBA/2, with stimulator cells) was 87.3%, the “% Lysis” value ([2]; 100 μg/ml, E/T 100:1, TDS DBA/2, without stimulator cells) was 42.0% and the “% Lysis” value ([2]; E + D (TDS effector, no stimulator), E/T 10:1) was 9.0%. For the same compound, the “% Lysis” value ([2]; E + D (TDS effector, no stimulator), E/T 30:1) was 29.8%, the “% Lysis” value ([2]; E + D (TDS effector, no stimulator), E/T 100:1) was 52.8% and the “% Lysis” value ([2]; E + S + D (TDS effector, stimulator), E/T 10:1) was 34.9%. For the same compound, the “% Lysis” value ([2]; E + S + D (TDS effector, stimulator), E/T 30:1) was 69.2%, the “% Lysis” value ([2]; E + S + D (TDS effector, stimulator), E/T 100:1) was 82.3% and the “% Lysis” value ([2]; N + D (normal effector, no stimulator), E/T 10:1) was -10.3%. For the same compound, the “% Lysis” value ([2]; N + D (normal effector, no stimulator), E/T 30:1) was -11.4%, the “% Lysis” value ([2]; N + D (normal effector, no stimulator), E/T 100:1) was -12.4% and the “% Lysis” value ([2]; N + S + D (normal effector, stimulator), E/T 10:1) was -10.9%. The “% Lysis” value ([2]; N + S + D (normal effector, stimulator), E/T 30:1) was -9.7%, the “% Lysis” value ([2]; N + S + D (normal effector, stimulator), E/T 100:1) was -9.5% and the “CTL activity of effector cells” value ([2]; in the presence of stimulator cells (Example 28)) was “significant specific enhancement of CTL activity”. For the same compound, the CTL activity ([2]; several concentrations, any E/T ratio, with or without stimulator cells, TDS) was “significant increase in CTL activity”.
